The values below come from ChEMBL document CHEMBL4825696, “Development of photocontrolled BRD4 PROTACs for tongue squamous cell carcinoma (TSCC)” (Eur J Med Chem, 2021).

Assay [1] deals with HN-6. Description: Antitumour activity against human HN-6 cells xenografted in zebrafish embryo assessed as inhibition of tumour growth at 50 uM irradiated with 365 nm UVA light for 20 mins and measured after 3 days by microscopic method. It counts as functional. The following applies: time 3.0 day. (In xenograft studies the graft and the host belong to different species.)
In assay [2] the test system is HN-6. Briefly: Antiproliferative activity against human HN-6 cells assessed as reduction in cell viability irradiated with 365 nm UVA light for 15 mins followed by incubation with compound for 24 hrs by CCK-8 assay. Type of assay: functional, cell-based. (In general: Tetrazolium dyes change colour on reduction, which living cells bring about.)
Assay [3] in a line: Induction of apoptosis in human HN-6 cells assessed as viable cells at 5 uM measured after 1 hr by AnnexinV-FITC/propidium iodide staining based flow cytometry analysis (reference value: 93.62%). It counts as functional. Particulars: read-out: Activity.
Assay [4] is described as follows: Induction of apoptosis in human HN-6 cells assessed as late apoptotic cells at 5 uM irradiated with 365 nm UVA light for 15 mins followed by incubation with compound for 24 hrs by AnnexinV-FITC/propidium iodide staining based flow cytometry analysis (Rvb =1.69%). Type of assay: functional.
Assay [5] in a line: Induction of apoptosis in human HN-6 cells assessed as early apoptotic cells at 5 uM measured after 1 hr by AnnexinV-FITC/propidium iodide staining based flow cytometry analysis (Rvb =1.54%). It counts as functional. In general terms: Flow cytometry measures light scatter and fluorescence of single cells or particles in a stream.
The nature of assay [6]: Induction of apoptosis in human HN-6 cells assessed as late apoptotic cells at 5 uM measured after 1 hr by AnnexinV-FITC/propidium iodide staining based flow cytometry analysis (reference value: 1.46%). It counts as functional.
Assay [7] in a line: Induction of apoptosis in human HN-6 cells assessed as viable cells at 5 uM irradiated with 365 nm UVA light for 15 mins followed by incubation with compound for 24 hrs by AnnexinV-FITC/propidium iodide staining based flow cytometry analysis (reference value: 90.31%). Type of assay: functional. The following applies: HN-6, light or radiation study, read-out: Activity.
The nature of assay [8]: Induction of apoptosis in human HN-6 cells assessed as necrotic cells at 5 uM measured after 1 hr by AnnexinV-FITC/propidium iodide staining based flow cytometry analysis (reference value: 3.37%). It counts as functional.
Assay [9] can be described thus: Induction of apoptosis in human HN-6 cells assessed as necrotic cells at 5 uM irradiated with 365 nm UVA light for 15 mins followed by incubation with compound for 24 hrs by AnnexinV-FITC/propidium iodide staining based flow cytometry analysis (reference value: 2.7%). It counts as functional.
Assay [10] addresses T1, Protein cereblon/Bromodomain-containing protein 4 (Homo sapiens) (UniProt O60885+Q96SW2). Briefly: PhotoPROTAC activity at CRBN/BRD4 in human HEK293T cells assessed as BRD4 degradation by measuring downregulation of c-Myc level pretreated for 1 hr followed by irradiation with 365 nm UVA light for 15 mins and measured after 24 hrs by Western blot analysis. Particulars: time 1515.0 min. It counts as cell-based.

A short description of assay [11]: Photolysis of compound in acetonitrile assessed as 2-((S)-4-(4-chlorophenyl)-2,3,9-trimethyl-6H-thieno[3,2-f][1,2,4]triazolo[4,3a][1,4]diazepin-6-yl)-N-(4-(2-((2-(2,6-dioxopiperidin-3-yl)-1,3-dioxoisoindolin-4-yl)oxy)acetamido)butyl)acetamide formation at 40 uM incubated for 60 mins under 365 nm UVA irradiation by HPLC analysis. Type of assay: functional.
Assay [12] has as its system HN-6. Briefly: (§1) Antiproliferative activity against human HN-6 cells assessed as reduction in cell viability incubated for 24 hrs by CCK-8 assay. Type of assay: functional, cell-based.
The subject of assay [13] is HN-6. Briefly: Antitumour activity against human HN-6 cells xenografted in zebrafish embryo assessed as inhibition of tumour growth at 50 uM measured after 72 hrs by microscopic method. It counts as functional.
The target of assay [14] is T1, Protein cereblon/Bromodomain-containing protein 4 (Homo sapiens). Briefly: PhotoPROTAC activity at CBRN/BRD4 in human HEK293T cells assessed as degradation of BRD4 irradiated with 365 nm UVA light for 15 mins followed by incubation with compound for 30 mins by Fluorescence polarization competitive binding assay. Type of assay: cell-based.
Assay [15] in a line: Photolysis of compound in DMSO-d6 assessed as 2-((S)-4-(4-chlorophenyl)-2,3,9-trimethyl-6H-thieno[3,2-f][1,2,4]triazolo[4,3a][1,4]diazepin-6-yl)-N-(4-(2-((2-(2,6-dioxopiperidin-3-yl)-1,3-dioxoisoindolin-4-yl)oxy)acetamido)butyl)acetamide formation at 10 mM incubated for 60 mins under 365 nm UVA irradiation by 1H-NMR analysis. Type of assay: functional.
The target of assay [16] is T1, Protein cereblon/Bromodomain-containing protein 4 (Homo sapiens). Description: PhotoPROTAC activity at CRBN/BRD4 in human HEK293T cells assessed as BRD4 degradation by measuring downregulation of BRD4 level at 3 uM pretreated for 1 hr followed by irradiation with 365 nm UVA light for 15 mins and measured after 24 hrs by Western blot analysis. It counts as cell-based. Particulars: time 1515.0 min.

Assay [17] can be described thus: Induction of apoptosis in human HN-6 cells assessed as early apoptotic cells at 5 uM irradiated with 365 nm UVA light for 15 mins followed by incubation with compound for 24 hrs by AnnexinV-FITC/propidium iodide staining based flow cytometry analysis (reference value: 5.3%). Type of assay: functional.
Assay [18] can be described thus: Photolysis of compound in acetonitrile assessed as 2-((S)-4-(4-chlorophenyl)-2,3,9-trimethyl-6H-thieno[3,2-f][1,2,4]triazolo[4,3a][1,4]diazepin-6-yl)-N-(4-(2-((2-(2,6-dioxopiperidin-3-yl)-1,3-dioxoisoindolin-4-yl)oxy)acetamido)butyl)acetamide formation at 40 uM incubated for 60 mins under 365 nm UVA irradiation by UV-Vis spectral analysis. Type of assay: functional.

In assay [19] the test system is HN-6. Description: Antitumor activity against human HN-6 cells xenografted in nude mouse assessed as tumor growth inhibition at 50 mg/kg, ip administered every day for 2 weeks and measured every 2 days. Type of assay: functional, organism-based.
Assay [20] concerns the target T1, Protein cereblon/Bromodomain-containing protein 4 (Homo sapiens). Briefly: PROTAC activity at CBRN/BRD4 in human HEK293T cells assessed as degradation of BRD4 measured after 30 mins by Fluorescence polarization competitive binding assay. It counts as cell-based.
The nature of assay [21]: as §1. The following applies: HN-6, 24 h. It counts as functional, cell-based.
In assay [22] the target is T1, Protein cereblon/Bromodomain-containing protein 4 (Homo sapiens). Briefly: PROTAC activity at CRBN/BRD4 in human HEK293T cells assessed as BRD4 degradation by measuring downregulation of c-Myc level by western blot analysis. Type of assay: cell-based.
Assay [23] shares this target. Briefly: PROTAC activity at CRBN/BRD4 in human HEK293T cells assessed as BRD4 degradation by measuring downregulation of BRD4 level at 0.1 to 10 uM by western blot analysis. It counts as cell-based. The following applies: dose 0.1-10 µM.
Assay [24] can be described thus: Photolysis of compound in acetonitrile assessed as 2-(2,6-dioxo-3-piperidyl)isoindoline-1,3-dione formation at 40 uM incubated for 40 mins under 365 nm UVA irradiation by UV-Vis spectral analysis. It counts as functional.
The nature of assay [25]: Photolysis of compound in acetonitrile assessed as 2-(2,6-dioxo-3-piperidyl)isoindoline-1,3-dione formation at 40 uM incubated for 40 mins under 365 nm UVA irradiation by HPLC analysis. It counts as functional.

Calls of active or inactive are those of the source. No cut-off for these calls is given here.

As to `COc1cc(CN2C(=O)CCC(N3C(=O)c4cccc(OCC(=O)NCCCCNC(=O)C[C@@H]5N=C(c6ccc(Cl)cc6)c6c(sc(C)c6C)-n6c(C)nnc65)c4C3=O)C2=O)c([N+](=O)[O-])cc1OC` (stereo not given in full), the outcome (with HN-6 [1]; with HN-6 [2]; in assay [10]; in assay [16]) was Active. Also, the figures for the viability at 5 µM in assay [3] and in assay [7] were 82.5% and 68.1%, respectively. Moreover, the Activity is 8.35% in [4]; 10.85% in assay [5]; 4.05% in [6]; 2.55% in assay [8]; 4.24% in assay [9]; “Dose-Dependent Effect” in [14]. Besides, the Activity in assay [17] was 19.29%. The Drug metabolism result in assay [11], in assay [15] and in assay [18] was “Metabolite detected” throughout. Besides, the result with HN-6 [12] and in the assay on HN-6 [13] was inactive.

A word on the IC50: it is the concentration that inhibits the measured activity by half. On to `Cc1sc2c(c1C)C(c1ccc(Cl)cc1)=N[C@@H](CC(=O)NCCCCNC(=O)COc1cccc3c1C(=O)N(C1CCC(=O)NC1=O)C3=O)c1nnc(C)n1-2` (stereo not given in full), for which the viability at 5 µM in assay [3] worked out at 51.1%. In addition, the Activity in [5] was 33.75%; in assay [6], 12.17%; in assay [8], 3%; in assay [20], “Dose-Dependent Effect”. Besides, the outcome (with HN-6 [19]; with HN-6 [13]; in assay [22]; in [23]) was Active. In addition, the IC50 in [21] is 7.07 µM.

Take `COc1cc(CN2C(=O)CCC(N3C(=O)c4ccccc4C3=O)C2=O)c([N+](=O)[O-])cc1OC` (stereo not given): the Drug metabolism entry in assay [24] and in assay [25] was “Metabolite detected” each time.
